We go through one compound from paper PMC3040809 (Amino Acids, 2010).

Structures are written as SMILES.

Data set [1] concerns cellular levels of O-GlcNAcylation. The settings on record: ref Liu et al. [2005], [2006], [2007]; Noach et al. [2007]; Kang et al. [2008]; cited from earlier work.
The conditions of data set [2]: physiological pH; ref Lenzen and Munday [1991]; cited from earlier work.
For the next data set, the target named is T1, hOGT (Homo sapiens, UniProt O15294).
T1 sequence (O15294 26-1036 isoform O15294-3): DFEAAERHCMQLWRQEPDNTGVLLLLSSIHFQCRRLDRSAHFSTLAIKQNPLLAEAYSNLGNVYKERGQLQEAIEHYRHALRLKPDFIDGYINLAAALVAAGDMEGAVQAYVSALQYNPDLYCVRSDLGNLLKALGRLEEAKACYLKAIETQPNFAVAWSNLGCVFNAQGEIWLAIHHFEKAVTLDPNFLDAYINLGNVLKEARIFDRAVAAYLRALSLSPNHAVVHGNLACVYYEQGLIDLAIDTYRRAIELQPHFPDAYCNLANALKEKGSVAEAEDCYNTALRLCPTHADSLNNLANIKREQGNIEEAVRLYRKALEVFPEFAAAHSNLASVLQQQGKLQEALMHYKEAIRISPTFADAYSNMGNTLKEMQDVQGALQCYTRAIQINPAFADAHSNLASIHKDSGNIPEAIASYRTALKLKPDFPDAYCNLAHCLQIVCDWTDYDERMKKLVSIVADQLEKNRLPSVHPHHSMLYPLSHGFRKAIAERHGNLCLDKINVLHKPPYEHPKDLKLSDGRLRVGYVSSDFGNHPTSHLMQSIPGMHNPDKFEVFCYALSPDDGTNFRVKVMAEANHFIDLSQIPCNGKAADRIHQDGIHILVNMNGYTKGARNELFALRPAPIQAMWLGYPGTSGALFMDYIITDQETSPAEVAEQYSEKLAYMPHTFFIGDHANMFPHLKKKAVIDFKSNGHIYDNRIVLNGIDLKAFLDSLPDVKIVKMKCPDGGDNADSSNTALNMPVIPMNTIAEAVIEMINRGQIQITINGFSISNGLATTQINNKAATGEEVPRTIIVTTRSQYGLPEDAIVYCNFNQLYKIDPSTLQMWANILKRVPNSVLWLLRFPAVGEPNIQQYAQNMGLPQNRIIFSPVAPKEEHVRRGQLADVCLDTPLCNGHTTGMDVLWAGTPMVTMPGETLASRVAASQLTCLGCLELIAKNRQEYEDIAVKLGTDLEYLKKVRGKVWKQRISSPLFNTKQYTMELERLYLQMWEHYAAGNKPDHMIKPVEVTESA
Format: biochemical.

The term IC50 denotes the midpoint of a concentration-inhibition curve. Consider `O=C1NC(=O)C(=O)C(=O)N1` [Alloxan], for which, in data set [1], the “concentration required to decrease cellular levels of O-GlcNAcylation” value is reported as “millimolar concentrations”. Moreover, in data set [2], the half-life time is listed as 1.5 min. Besides, half-maximal inhibition against hOGT (IC50) was put at 18 ± 1 µM.
